Among the data in patent publication US9932320B2 (BRISTOL-MYERS SQUIBB COMPANY, priority 2014, dated 2018) are IC50 values, retold here.

As usually defined, the IC50 is the concentration that gives 50% inhibition.

In this assay the target is T1, AAK1 (GST-Xa-hAAK1) (Homo sapiens, UniProt Q2M2I8).
T1 construct: made in house
Nature of the assay: AAK1 Kinase Assay (Caliper LabChip, fluoresceinated peptide substrate). In kind it is biochemical. To be noted: AAK1 functional potency. Here is the method:
The assays were performed in U-bottom 384-well plates. The final assay volume was 30 μl prepared from 15 μl additions of enzyme and substrates (fluoresceinated peptide (5-FAM)-Aha-KEEQSQITSQVTGQIGWR-NH2 and ATP) and test compounds in assay buffer (10 mM Tris-HCL pH 7.4, 10 mM MgCl2, 0.01% Tween-20 and 1.0 mM DTT). The reactions were initiated by the combination of bacterially expressed, GST-Xa-hAAK1 with substrates and test compounds. The reactions were incubated at room temperature for 3 hours and terminated by adding 60 μl of 35 mM EDTA buffer to each sample. The reactions were analyzed on the Caliper LabChip 3000 (Caliper, Hopkinton, Mass.) by electrophoretic separation of the fluorescent substrate and phosphorylated product. Inhibition data were calculated by comparison to EDTA quenched control reactions for 100% inhibition and vehicle-only reactions for 0% inhibition. The final concentration of reagents in the assays are ATP, 22 μM; (5-FAM)-Aha-KEEQSQITSQVTGQIGWR-NH2, 1.5 μM; GST-Xa-hAAK1, 3.5 nM; and DMSO, 1.6%. Dose response curves were generated to determine the concentration required inhibiting 50% of kinase activity (IC50). Compounds were dissolved at 10 mM in dimethylsulfoxide (DMSO) and evaluated at eleven concentrations. IC50 values were derived by non-linear regression analysis.

Setting [1] is: class symbols, read-out: IC50 (nM), functional potency as IC50 ranges.
Where [2] appears, read: numeric values, read-out: IC50 (nM), functional potency.

Where two headings read alike, the source gives them in different places.

T1 sequence (Q2M2I8 whole entry): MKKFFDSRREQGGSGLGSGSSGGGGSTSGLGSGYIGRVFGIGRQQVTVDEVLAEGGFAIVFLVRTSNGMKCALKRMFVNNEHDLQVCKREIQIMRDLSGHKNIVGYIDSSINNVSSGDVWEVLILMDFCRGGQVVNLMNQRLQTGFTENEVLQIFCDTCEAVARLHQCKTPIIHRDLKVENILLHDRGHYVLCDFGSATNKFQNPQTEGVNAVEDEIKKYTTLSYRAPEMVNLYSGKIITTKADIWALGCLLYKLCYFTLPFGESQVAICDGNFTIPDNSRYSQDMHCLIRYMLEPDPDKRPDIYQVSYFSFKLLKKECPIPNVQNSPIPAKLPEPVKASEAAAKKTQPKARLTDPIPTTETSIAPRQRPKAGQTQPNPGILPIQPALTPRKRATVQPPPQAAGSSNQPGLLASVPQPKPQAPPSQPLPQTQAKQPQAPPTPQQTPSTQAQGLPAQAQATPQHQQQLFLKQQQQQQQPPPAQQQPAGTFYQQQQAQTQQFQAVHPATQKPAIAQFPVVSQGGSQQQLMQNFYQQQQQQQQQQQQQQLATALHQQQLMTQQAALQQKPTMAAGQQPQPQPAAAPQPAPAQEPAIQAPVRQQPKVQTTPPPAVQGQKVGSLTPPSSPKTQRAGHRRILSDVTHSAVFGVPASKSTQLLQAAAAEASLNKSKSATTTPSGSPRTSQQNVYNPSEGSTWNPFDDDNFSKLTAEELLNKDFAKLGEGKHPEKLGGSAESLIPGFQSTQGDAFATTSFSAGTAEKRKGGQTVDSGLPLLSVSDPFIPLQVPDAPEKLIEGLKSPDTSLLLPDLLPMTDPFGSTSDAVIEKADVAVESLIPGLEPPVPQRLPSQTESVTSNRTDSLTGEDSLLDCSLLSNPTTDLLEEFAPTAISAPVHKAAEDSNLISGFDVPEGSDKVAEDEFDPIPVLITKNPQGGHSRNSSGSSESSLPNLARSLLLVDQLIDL

In the case of `CCc1cc(C(N)CC(C)C)nc2ccc(-c3ccncc3)cc12` (racemic) [Example 43, 1-(4-ethyl-6-(pyridin-4-yl)quinolin-2-yl)-3-methylbutan-1-amine], the IC50 under setting [1] fell in the range of 11 to 100 nM. Regarding `CC(C)C[C@@H](N)c1cc(C#N)c2cc(-c3ccncc3)ccc2n1` (single isomer, unassigned) [Example 7], the IC50 under setting [2] came to 12 nM. Take `CC(C)C[C@H](N)c1cc(C#N)c2cc(-c3ccncc3)ccc2n1` (single isomer, unassigned) [Example 8]: the IC50 under setting [1] fell in the range of 1 to 10 nM. On the same count and under the same terms, then `CC(=O)Nc1cc(-c2ccc3nc(C(N)CC(C)C)ccc3c2)ccn1` (single isomer, unassigned) [Example 33, N-(4-(2-(1-amino-3-methylbutyl)quinolin-6-yl)pyridin-2-yl)acetamide], with 1 to 10 nM; and `CC(=O)Nc1cc(-c2ccc3nc(C(N)CC(C)C)ccc3c2)ccn1` (single isomer, unassigned) [Example 34, N-(4-(2-(1-amino-3-methylbutyl)quinolin-6-yl)pyridin-2-yl)acetamide], with 1 to 10 nM.

On to `NC(=O)c1cc(C(N)C2CCCCC2)nc2ccc(-c3ccncc3)cc12` (single isomer, unassigned) [Example 39, 2-(amino(cyclohexyl)methyl)-6-(pyridin-4-yl)quinoline-4-carboxamide], for which, under setting [2], the IC50 amounted to 54 nM. For `NC(=O)c1cc(C(N)C2CCCCC2)nc2ccc(-c3ccncc3)cc12` (single isomer, unassigned) [Example 40, 2-(amino(cyclohexyl)methyl)-6-(pyridin-4-yl)quinoline-4-carboxamide], the IC50 under setting [1] fell in the range of 101 to 2500 nM. Same read-out and setting: then `CC(=O)Nc1cc(-c2ccc3nc(C(N)CC(C)C)ccc3c2)c2ccccc2n1` (single isomer, unassigned) [Example 46, N-(2′-(1-amino-3-methylbutyl)-4,6′-biquinolin-2-yl)acetamide], with 101 to 2500 nM. In the case of `CC(=O)Nc1cc(-c2ccc3nc(C(N)CC(C)C)ccc3c2)c2ccccc2n1` (single isomer, unassigned) [Example 47, N-(2′-(1-amino-3-methylbutyl)-4,6′-biquinolin-2-yl)acetamide], the IC50 under setting [2] stood at 1200 nM. On to `CC(C)CC(N)c1ccc2cc(-c3cc(N)nc4ccccc34)ccc2n1` (single isomer, unassigned) [Example 48, 2′-(1-amino-3-methylbutyl)-4,6′-biquinolin-2-amine], for which the IC50 under setting [1] was 101 to 2500 nM.

On to `CC(C)CC(N)c1ccc2cc(-c3cc(N)nc4ccccc34)ccc2n1` (single isomer, unassigned) [Example 49, 2′-(1-amino-3-methylbutyl)-4,6′-biquinolin-2-amine], for which the IC50 under setting [1] was 101 to 2500 nM. Regarding `COc1cc2nc(C(N)CC(C)C)cc(C#N)c2cc1-c1cnco1` (single isomer, unassigned; (+)) [Example 13, (+)-2-(1-Amino-3-methylbutyl)-7-methoxy-6-(oxazol-5-yl)quinoline-4-carbonitrile], the IC50 under setting [2] was determined as 4.1 nM.

Take `CC(C)CC(N)c1ccc2cc(-c3ccncc3)ccc2n1` (single isomer, unassigned; (+)) [Example 21, (+)-3-methyl-1-(6-(pyridin-4-yl)quinolin-2-yl)butan-1-amine]: the IC50 under setting [1] was in the range of 11 to 100 nM. For `COc1cnccc1-c1ccc2nc(C(N)CC(C)C)ccc2c1` (single isomer, unassigned; (+)) [Example 22, (+)-1-(6-(3-methoxypyridin-4-yl)quinolin-2-yl)-3-methylbutan-1-amine], under setting [1], the IC50 was in the range of 101 to 2500 nM. Regarding `COc1cc2nc(C(N)CC(C)C)cc(C#N)c2cc1-c1cnco1` (single isomer, unassigned; (-)) [Example 12, (−)-2-(1-Amino-3-methylbutyl)-7-methoxy-6-(oxazol-5-yl)quinoline-4-carbonitrile], the IC50 under setting [1] fell in the range of 11 to 100 nM.

In the case of `CC(C)CC(N)c1ccc2cc(-c3ccncc3)ccc2n1` (single isomer, unassigned; (-)) [Example 20, (−)-3-methyl-1-(6-(pyridin-4-yl)quinolin-2-yl)butan-1-amine], the IC50 under setting [1] fell in the range of 11 to 100 nM.
